Counter-ions that a name gives are not always drawn.

For the compound `C[C@@H](NC(=O)C1CCc2[nH]cnc2C1)c1cccc2ccccc12.Cl` (some centres unmarked), the melting point – broadly, the temperature of the solid-liquid transition – fell in the range of 84 to 85 °C.

Consider `Cl.O=C(NCc1cccc2ccccc12)C1CCc2[nH]cnc2C1` (centres unmarked), for which the melting point fell in the range of 142 to 144 °C. `Cl.O=C(Cc1ccc(Cl)cc1)NC1CCc2[nH]cnc2C1` (centres unmarked): the melting point was 222 to 224 °C. Turning to `O=C(NCc1ccccc1)C1CCc2[nH]cnc2C1.O=C(O)C(=O)O` (centres unmarked), the melting point is 130 to 132 °C. For the compound `O=C(NCCc1ccccc1)C1CCc2[nH]cnc2C1.O=C(O)C(=O)O` (centres unmarked), the melting point lay within 197 to 199 °C. In turn, `Cl.O=C(NCCCc1ccc(Cl)cc1)C1CCc2[nH]cnc2C1` (centres unmarked) registered a melting point of 146 to 148 °C. For `O=C(NCc1ccccc1Cl)C1CCCc2[nH]cnc21` (centres unmarked) (as salt: hydrochloride) [Example 89, 4,5,6,7-Tetrahydro-1H-benzimidazole-4-carboxylic acid 2-chlorobenzylamide], the melting point lay within 165 to 167 °C. Turning to `CN(Cc1ccccc1)C(=O)C1CCCc2[nH]cnc21` (centres unmarked) (as salt: hydrochloride) [Example 90, 4,5,6,7-Tetrahydro-1H-benzimidazole-4-carboxylic acid benzylmethylamide], the melting point was in the range of 211 to 213 °C. The value for `O=C(NCCc1ccccc1)C1CCCc2[nH]cnc21` (centres unmarked) (as salt: hydrochloride) [Example 91, 4,5,6,7-Tetrahydro-1H-benzimidazole-4-carboxylic acid phenethylamide] was 177 to 179 °C; that for `C[C@H](NC(=O)C1CCc2[nH]cnc2C1)c1cccc2ccccc12` (some centres unmarked) [Example 1] was 158 to 160 °C; that for `O=C(NCc1c(Cl)cccc1Oc1ccccc1)C1CCc2[nH]cnc2C1` (centres unmarked) [Example 22, 4,5,6,7-Tetrahydro-1H-benzimidazole-5-carboxylic Acid N-(2-Chloro-6-phenoxy-benzyl)amide] was 197 to 199 °C.

The values are drawn from US6756384B2, “Imidazole compounds” (Novo Nordisk A/S, priority 2000, dated 2004).
